# Key:
# redroot pigweed = test: Test A pre-/postemergence greenhouse test; format: in vivo, Amaranthus retroflexus; details: for Plant response rating, Pigweed: 0 to 100 scale where 0 is no effect and 100 is complete control; for Pigweed plant response rating: 0 to 100 scale
# Method in brief: (§1)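 Seeds sown in a loam soil–sand blend got a preemergence directed soil spray of compound in a non-phytotoxic solvent mixture containing surfactant. Postemergence sprays of the same formulation went at the same time onto plants 2–10 cm tall at the one- to two-leaf stage. Injury was scored visually against untreated controls after about ten days in the greenhouse.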
# rice = test: Test C flooded paddy test; format: in vivo, Oryza sativa; details: Flood
# Method in brief: (§2)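 Under a constant 3 cm flood, test compounds went directly into the paddy water. Following 13 to 15 days of greenhouse growth, treated species and controls were compared by eye.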
# Surinam grass = test: Test C pre-/postemergence test; format: in vivo, Brachiaria decumbens
# Text: (§3) Seeds of plant species selected from blackgrass (Alopecurus myosuroides), downy brome (Bromus tectorum), green foxtail (Setaria viridis), Italian ryegrass (Lolium multiflorum), wheat (Triticum aestivum), wild oat (Avena fatua), catchweed bedstraw (Galium aparine), Russian thistle (Salsola kali), […] (Cynodon dactylon), Surinam grass (Brachiaria decumbens), cocklebur (Xanthium strumarium), corn (Zea mays), crabgrass (Digitaria sanguinalis), woolly cupgrass (Eriochloa villosa), giant foxtail (Setaria faberii), Goosegrass (Eleusin indica), johnsongrass (Sorghum halepense), kochia (Kochia scoparia), lambsquarters (Chenopodium album), morningglory (Ipomoea coccinea), eastern black nightshade (Solanum ptycanthum), yellow nutsedge (Cyperus esculentus), pigweed (Amaranthus retroflexus), common ragweed (Ambrosia elation), soybean (Glycine max), common (oilseed) sunflower (Helianthus annuus), and velvetleaf (Abutilon theophrasti) were planted and treated preemergence with test chemicals formulated in a non-phytotoxic solvent mixture which included a surfactant. At the same time, plants selected from these crop and weed species and also winter barley (Hordeum vulgare), canarygrass (Phalaris minor), and chickweed (Stellaria media) were treated with postemergence applications of some of the test chemicals formulated in the same manner. Plants ranged in height from 2 to 18 cm (1- to 4-leaf stage) for postemergence treatments. […] At time of treatment, test pots were flooded to 3 cm above the soil surface, treated by application of test compounds directly to the paddy water, and then maintained at that water depth for the duration of the test. […] A dash (-) response means no test result.
# pigweed = test: Test C pre-/postemergence test; format: in vivo, Amaranthus retroflexus
# Text: as §3
# [1] = test system: common (oilseed) sunflower; test: Test C pre-/postemergence test; format: in vivo, Helianthus annuus
# Text: as §3
# corn = test: Test A pre-/postemergence greenhouse test; format: in vivo, Zea mays; details: for Plant response rating, Corn: 0 to 100 scale where 0 is no effect and 100 is complete control; for Corn plant response rating: 0 to 100 scale
# Method in brief: as §1
# morningglory = test: Test A pre-/postemergence greenhouse test; format: in vivo, Ipomoea spp.; details: for Plant response rating, Morningglory: 0 to 100 scale where 0 is no effect and 100 is complete control; for Morningglory plant response rating: 0 to 100 scale
# Method in brief: as §1
# Goosegrass = test: Test C pre-/postemergence test; format: in vivo, Eleusin indica
# Text: as §3
# bermudagrass = test: Test C pre-/postemergence test; format: in vivo, Cynodon dactylon
# Text: as §3
# wheat [2] = test: Test C pre-/postemergence test; format: in vivo, Triticum aestivum
# Text: as §3
# giant foxtail = test: Test A pre-/postemergence greenhouse test; format: in vivo, Setaria faberi; details: for Plant response rating, Foxtail, Giant: 0 to 100 scale where 0 is no effect and 100 is complete control; for Foxtail, Giant plant response rating: 0 to 100 scale
# Method in brief: as §1
# crabgrass = test: Test C pre-/postemergence test; format: in vivo, Digitaria sanguinalis
# Text: as §3
# umbrella sedge = test: Test C flooded paddy test; format: in vivo, Cyperus difformis; details: Flood
# Method in brief: as §2
# wheat [3] = test: Test A pre-/postemergence greenhouse test; format: in vivo, Triticum aestivum; details: for Plant response rating, Wheat: 0 to 100 scale where 0 is no effect and 100 is complete control; for Wheat plant response rating: 0 to 100 scale
# Method in brief: as §1
# barnyardgrass = test: Test A pre-/postemergence greenhouse test; format: in vivo, Echinochloa crus-galli; details: for Plant response rating, Barnyardgrass: 0 to 100 scale where 0 is no effect and 100 is complete control; for Barnyardgrass plant response rating: 0 to 100 scale
# Method in brief: as §1
# [4] = Postemergence, 500 g ai/ha, 0 is no effect, 100 is complete control
# [5] = Preemergence, 125 g ai/ha, 0 no effect, 100 complete control
# [6] = 62 g ai/ha, scale 0 to 100 (0 no effect, 100 complete control)
# [7] = 250 g ai/ha, scale 0 to 100, 0 no effect, 100 complete control, 13 to 15 days
# [8] = 62 g ai/ha, Preemergence, scale 0 to 100
# [9] = 125 g ai/ha, preemergence, scale 0 (no effect) to 100 (complete control)
# [10] = Preemergence, 31 g ai/ha, scale 0 to 100 (0 no effect, 100 complete control)
# [11] = preemergence, 250 g ai/ha, scale 0 (no effect) to 100 (complete control)
smiles,measurement,setting,value
CCn1nc(C(F)(F)F)c(C[S+]([O-])c2cc(C)cc[n+]2[O-])c1OCC(F)(F)F (racemic) [Compound 66],"Plant response rating, Pigweed","redroot pigweed; Postemergence, 125 g ai/ha",60
same,Pigweed plant response rating,redroot pigweed; [4],90
same,Pigweed plant response rating,redroot pigweed; [5],100
same,"Plant response rating, Pigweed","redroot pigweed; Preemergence, 500 g ai/ha",100
same,"Plant response rating, Rice",rice; [6],20
same,"Plant response rating, Rice",rice; [7],70
same,Surinam Grass plant response rating,Surinam grass; [8],100
same,Surinam Grass plant response rating,Surinam grass; [9],100
same,"Plant response rating, Surinam Grass",Surinam grass; [10],100
same,Surinam Grass plant response rating,Surinam grass; [11],100
same,Pigweed plant response rating,pigweed; [8],30
same,Pigweed plant response rating,pigweed; [9],100
same,Pigweed plant response rating,pigweed; [11],100
same,Sunflower plant response rating,[1]; [8],80
same,Sunflower plant response rating,[1]; [9],80
same,"Plant response rating, Sunflower",[1]; [10],30
same,Sunflower plant response rating,[1]; [11],98
same,"Plant response rating, Corn","corn; Postemergence, 125 g ai/ha",50
same,Corn plant response rating,corn; [4],80
same,Corn plant response rating,corn; [5],30
same,"Plant response rating, Corn","corn; Preemergence, 500 g ai/ha",80
same,"Plant response rating, Morningglory","morningglory; Postemergence, 125 g ai/ha",60
same,Morningglory plant response rating,morningglory; [4],90
same,Morningglory plant response rating,morningglory; [5],70
same,"Plant response rating, Morningglory","morningglory; Preemergence, 500 g ai/ha",100
same,Goosegrass plant response rating,Goosegrass; [8],100
same,Goosegrass plant response rating,Goosegrass; [9],100
same,"Plant response rating, Goosegrass",Goosegrass; [10],100
same,Goosegrass plant response rating,Goosegrass; [11],100
same,Bermudagrass plant response rating,"bermudagrass; 62 g ai/ha, Preemergence, scale 0 to 100 (0 no effect, 100 complete control)",100
same,Bermudagrass plant response rating,bermudagrass; [9],100
same,"Plant response rating, Bermudagrass",bermudagrass; [10],100
same,Bermudagrass plant response rating,bermudagrass; [11],100
same,Wheat plant response rating,wheat [2]; [8],85
same,Wheat plant response rating,wheat [2]; [9],98
same,"Plant response rating, Wheat",wheat [2]; [10],0
same,Wheat plant response rating,wheat [2]; [11],100
same,"Plant response rating, Foxtail, Giant","giant foxtail; Postemergence, 125 g ai/ha",80
same,"Foxtail, Giant plant response rating",giant foxtail; [4],90
same,"Foxtail, Giant plant response rating",giant foxtail; [5],90
same,"Plant response rating, Foxtail, Giant","giant foxtail; Preemergence, 500 g ai/ha",100
same,"Crabgrass, Large plant response rating",crabgrass; [8],100
same,"Crabgrass, Large plant response rating",crabgrass; [9],100
same,"Plant response rating, Crabgrass, Large",crabgrass; [10],100
same,"Crabgrass, Large plant response rating",crabgrass; [11],100
same,"Plant response rating, Sedge, Umbrella",umbrella sedge; [6],85
same,"Plant response rating, Sedge, Umbrella",umbrella sedge; [7],100
same,"Plant response rating, Wheat","wheat [3]; Postemergence, 125 g ai/ha",60
same,Wheat plant response rating,wheat [3]; [4],70
same,Wheat plant response rating,wheat [3]; [5],70
same,"Plant response rating, Wheat","wheat [3]; Preemergence, 500 g ai/ha",100
same,"Plant response rating, Barnyardgrass","barnyardgrass; Postemergence, 125 g ai/ha",70
same,Barnyardgrass plant response rating,barnyardgrass; [4],90
same,Barnyardgrass plant response rating,barnyardgrass; [5],60
same,"Plant response rating, Barnyardgrass","barnyardgrass; Preemergence, 500 g ai/ha",100

# Source: patent publication US20100298141A1, “SUBSTITUTED PYRIDINE N-OXIDE HERBICIDES” (E. I. DU PONT DE NEMOURS AND COMPANY, priority 2007, published 2010)
